Source: US5120726A, “Rapamycin hydrazones” (American Home Products Corporation, priority 1991, dated 1992)
Read-outs that look alike come from different tables or passages of the source.

Legend:
[1] = tested on: pinch skin graft from male DBA/2 donors transplanted to male BALB/c recipients; test: survival time of pinch skin graft; type: in vivo; settings: intraperitoneally; mean ± S.D.
Procedure: (§1) Immunosuppressive activity was evaluated in an in vitro standard pharmacological test procedure to measure lymphocyte proliferation (LAF) and in two in vivo standard pharmacological test procedures. The first in vivo procedure was a popliteal lymph node (PLN) test procedure which measured the effect of compounds of this invention on a mixed lymphocyte reaction and the second in vivo procedure evaluated the survival time of a pinch skin graft.
The second in vivo test procedure is designed to determine the survival time of pinch skin graft from male DBA/2 donors transplanted to male BALB/c recipients. The method is adapted from Billingham R. E. and Medawar P. B., J. Exp. Biol. 28:385-402, (1951). Briefly, a pinch skin graft from the donor is grafted on the dorsum of the recipient as a homograft, and an autograft is used as control in the same region. […] Untreated recipients serve as rejection control. The graft is monitored daily and observations are recorded until the graft becomes dry and forms a blackened scab. This is considered as the rejection day. The mean graft survival time (number of days±S.D.) of the drug treatment group is compared with the control group.

[2] = tested on: cells from the thymus of normal BALB/c mice (lymphocyte proliferation); test: comitogen-induced thymocyte proliferation procedure (LAF), lymphocyte proliferation; type: cell-based; settings: for IC50: Mus musculus, Lymphocyte, read-out: LAF IC50; for LAF (ratio): ratio vs rapamycin
Procedure: as §1
Briefly, cells from the thymus of normal BALB/c mice are cultured for 72 hours with PHA and IL-1 and pulsed with tritiated thymidine during the last six hours. […] Cells are harvested and incorporated radioactivity is determined. Inhibition of lymphoproliferation is assessed as percent change in counts per minute from non-drug treated controls. The results are expressed by the following ratio, or as the percent inhibition of lymphoproliferation at 1 μM. [formula]

[3] = tested on: mixed lymphocyte reaction (popliteal lymph node); test: popliteal lymph node (PLN) test procedure, effect on a mixed lymphocyte reaction; type: in vivo, C3H mice (BALB/c donors); settings: ratio vs rapamycin; p.o. daily Day 0 to Day 4
Procedure: as §1
A mixed lymphocyte reaction (MLR) occurs when lymphoid cells from genetically distinct animals are combined in tissue culture. Each stimulates the other to undergo blast transformation which results in increased DNA synthesis that can be quantified by the incorporation of tritiated thymidine. Since stimulating a MLR is a function of disparity at Major Histocompatibility antigens, an in vivo popliteal lymph node (PLN) test procedure closely correlates to host vs. graft disease. Briefly, irradiated spleen cells from BALB/c donors are injected into the right hind foot pad of recipient C3H mice. The drug is given daily, p.o. from Day 0 to Day 4. On Day 3 and Day 4, tritiated thymidine is given i.p., b.i.d. On Day 5, the hind popliteal lymph nodes are removed and dissolved, and radioactivity counted. […] Percent suppression is calculated using the non-drug treated animals as allogenic control. […]

[4] = tested on: organ grafts in histoincompatible rodents; settings: cited from earlier work
T-cell activation = settings: cited from earlier work
adjuvant arthritis = settings: in vivo; cited from earlier work
Candida albicans = settings: both in vitro and in vivo; cited from earlier work
[5] = thymocytes cultured 72 hours with PHA and IL-1, tritiated thymidine last six hours

SMILES | Skin Graft survival time (days + SD) [1] | IC50 [2, 5] | LAF (ratio) [2, 5] | PLN (ratio) [3] | survival time of organ grafts [4] | inhibition of T-cell activation (T-cell activation) | effect in adjuvant arthritis model (adjuvant arthritis) | IC50 [2] | antifungal activity (Candida albicans)
CO[C@H]1C[C@@H]2CC[C@@H](C)[C@@](O)(O2)C(=O)C(=O)N2CCCC[C@H]2C(=O)O[C@H]([C@H](C)C[C@@H]2CC[C@@H](O)[C@H](OC)C2)CC(=NNC(C)=O)[C@H](C)/C=C(\C)[C@@H](O)[C@@H](OC)C(=O)[C@H](C)C[C@H](C)/C=C/C=C/C=C/1C [Example 1, Rapamycin 27-(methylcarbonyl hydrazone)] | 10.50 ± 0.6 days | 17.3 nM | 0.50 |  |  |  |  |  | 
CO[C@H]1C[C@@H]2CC[C@@H](C)[C@@](O)(O2)C(=O)C(=O)N2CCCC[C@H]2C(=O)O[C@H]([C@H](C)C[C@@H]2CC[C@@H](O)[C@H](OC)C2)CC(=NNC(N)=O)[C@H](C)/C=C(\C)[C@@H](O)[C@@H](OC)C(=O)[C@H](C)C[C@H](C)/C=C/C=C/C=C/1C [Example 4, Rapamycin 27-semicarbazone] |  | 37.2 nM | 0.24 | 1.07 |  |  |  |  | 
CO[C@H]1C[C@@H]2CC[C@@H](C)[C@@](O)(O2)C(=O)C(=O)N2CCCC[C@H]2C(=O)O[C@H]([C@H](C)C[C@@H]2CC[C@@H](O)[C@H](OC)C2)CC(=O)[C@H](C)/C=C(\C)[C@@H](O)[C@@H](OC)C(=O)[C@H](C)C[C@H](C)/C=C/C=C/C=C/1C [Rapamycin] | 12.0 ± 1.7 days |  |  | 1 | prolong survival time of organ grafts in histoincompatible rodents | inhibit T-cell activation | effective | 8.5 to 8.8 nM | antifungal activity, particularly against Candida albicans, both in vitro and in vivo
CO[C@H]1C[C@@H]2CC[C@@H](C)[C@@](O)(O2)C(=O)C(=O)N2CCCC[C@H]2C(=O)O[C@H]([C@H](C)C[C@@H]2CC[C@@H](O)[C@H](OC)C2)CC(=NNc2ccccn2)[C@H](C)/C=C(\C)[C@@H](O)[C@@H](OC)C(=O)[C@H](C)C[C@H](C)/C=C/C=C/C=C/1C [Example 3, Rapamycin 27-(2-Pyridinylhydrazone)] |  | 15.9 nM | 0.55 |  |  |  |  |  | 
CO[C@H]1C[C@@H]2CC[C@@H](C)[C@@](O)(O2)C(=O)C(=O)N2CCCC[C@H]2C(=O)O[C@H]([C@H](C)C[C@@H]2CC[C@@H](O)[C@H](OC)C2)CC(=NNC(=O)Nc2ccccc2)[C@H](C)/C=C(\C)[C@@H](O)[C@@H](OC)C(=O)[C@H](C)C[C@H](C)/C=C/C=C/C=C/1C [Example 2, Rapamycin 27-(4-Phenylsemicarbazone)] | 7.83 ± 1.3 days | 19.2 nM | 0.45 |  |  |  |  |  | 
